Test results from patent publication US5198430A, “Inclusion complexes with silybinin, their preparation and pharmaceutical compositions containing them” (Istituto Biochimico Italiano Giovanni Lorenzini SpA, priority 1989, dated 1993).

Assays:
in vivo = test: in vivo; parameters: species or system Wistar rats; settings: po, 8 mg/kg
Procedure: The absorption of the complexes of the invention has been evaluated by orally administering an aqueous solution of the composition under examination and measuring by HPLC the Silybinin bile levels. This test has been preferred because it is well known that drugs of the Silymarin kind reach in the bile the highest concentration.
The experiments have been carried out on Wistar rats weighing 180-200 g to which the compositions under examination were administered by gastric intubation. The animals were kept on an empty stomach for 16 hours. The composition to be tested was dissolved in water containing 10% of gum Arabic and were prepared solutions so that each animal was administered,each time with an amount of 5 ml/kg of said solution.
Immediately after the treatment the animals were anaesthetized and operated to check the coledocous duct. A small tube was inserted therein and the bile was collected over a period of 24 hours.
For the analytical determination 1 ml bile was treated as described in the following publication: D. Lorenz et al, Pharmacokinetic Studies with Silymarin in Human Serum and Bile--Meth. and Find.Exptl.Clin.Pharmacol.6(10) 655-661 (1984).
in test A, there were administered 20 mg/kg of Silymarin, according to a known commercial formulation which corresponds to 8 mg/kg of pure Silybinin,
in test B, there were administered 8.79 mg/kg of Silybinin having a HPLC titre of 91%, which corresponds to 8 mg/kg of pure Silybinin, used such as without excipients, […]

[1] = pH 7.5
Procedure: Release experiments with Silybinin, Silymarin and the complex of this Example were carried out according to USP XXII, paddle apparatus at pH 7.5 and 37° C.

[2] = Resorption: excretion of Silybinin in rat bile after intragastric administration, quantitative TLC; parameters: species or system male Wistar SPF rats; settings: in vivo, po, 5 mg/kg
Procedure: In a further experiment the resorption of Silymarin, Silybinin and of the complex of Example 6 was evaluated. For this purpose the excretion of Silybinin in the rat bile was determined in a conventional model experiment. Anesthetized male Wistar SPF rats kept under conventional conditions, were cannulated at the ductus choledochus. After intragastric administration of the test compound (5 mg Silybinin/kg) the bile fluid was collected for 5hr. The Silybinin content in the bile fluid was determined by quantitative thin layer chromatography.

[3] = Thermoanalytical studies (TG, DTG, DSC, TEA); type: physicochemical
Procedure: Thermoanalytical investigations were carried out on a Du Pont 990 Thermal Analyser System. TG (Thermogravimetry) DTG (Differential TG) DSC (Differential Scanning Calorimetry) and TEA (Thermal Evolution Analysis) curves of the drug, as well as those of its mechanical mixtures with DIMEB and HP-βCD and the complexes were taken simultaneously.

Compound	0-24 hr Silybinin in bile per rat (in vivo) [mcg/rat]	concentration at 24 h (in vivo; rat) [ng/mL]	dose excreted at 24 h (in vivo; rat) [%]	release (solubility) [1] [%]	dose excreted at 5 h [2] [%]	temperature at which decomposition of the drug begins ([3]; DSC, FIG. 4, non-complexed Silybinin)	loss of weight up to 160° C. ([3]; first decomposition step)	start of second decomposition step ([3]; region of the cyclodextrin decomposition)	% excreted Silybinin (in vivo; rat, 1440 min) [%]	Bile 0-24 hr Silybinin level (in vivo; rat, 1440 min) [µg/mL]
COc1cc(C2Oc3cc(C4Oc5cc(O)cc(O)c5C(=O)C4O)ccc3OC2CO)ccc1O (centres unmarked) [Silybinin]	11.9	1000	0.6	0	0.21	about 130 °C	4-5%	above 250 °C		
Silybinin: β-cyclodextrin Inclusion Complex (Molar Ratio 1:1) [Example 1]	256.6								11.7	17.6
